The values that follow come from patent publication US12421249B2, “Inhibitors of APOL1 and methods of using same” (Vertex Pharmaceuticals Incorporated, priority 2020, dated 2025).

pIC50: −log10 of the molar value. Where two headings read alike, the source gives them in different places. Where only a bound is given, the exact number is not on record here.

For orientation: IC90 means the point of the concentration-response curve where the effect stands at 90%. Low values mean an effect from little substance, high ones a need for much substance.

In one experiment the target is T1, APOL1 G1 (Homo sapiens, UniProt O14791, I384M/S342G).
T1 sequence (O14791 28-398 S342G/I384M): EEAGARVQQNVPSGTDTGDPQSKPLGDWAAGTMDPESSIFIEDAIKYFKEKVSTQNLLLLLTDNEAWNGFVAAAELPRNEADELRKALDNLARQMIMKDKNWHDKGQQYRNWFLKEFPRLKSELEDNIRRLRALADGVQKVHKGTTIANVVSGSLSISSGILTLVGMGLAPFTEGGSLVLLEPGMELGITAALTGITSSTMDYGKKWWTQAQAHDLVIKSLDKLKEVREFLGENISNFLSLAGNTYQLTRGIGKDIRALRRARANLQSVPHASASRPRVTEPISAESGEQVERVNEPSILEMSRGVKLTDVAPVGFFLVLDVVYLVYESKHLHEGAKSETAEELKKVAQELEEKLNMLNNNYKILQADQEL
Kind of experiment: Trypanosoma brucei brucei Lysis Assay Using APOL1 Recombinant Protein (AlamarBlue viability readout). It is filed as cell-based. To be noted: for Emax: read-out: Trypanosome Assay Max Activity (%). Put shortly: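 Percent viability comes from AlamarBlue (resazurin→resorufin) fluorescence interpolated on a standard curve of known parasite numbers, with no-APOL1 wells as 100%. Parasites (Lister 427 bloodstream form, 120,000/well, serum-free assay medium) meet 0.05 μg/mL APOL1 (~EC90). Compounds span a 10-point series, 0.1% DMSO final.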
(In general: Resazurin is reduced to fluorescent resorufin, in cell work by metabolically active cells.)

Another experiment has as its target T2, APOL1 (Homo sapiens, UniProt O14791).
T2 sequence (O14791 1-398 S342G/I384M): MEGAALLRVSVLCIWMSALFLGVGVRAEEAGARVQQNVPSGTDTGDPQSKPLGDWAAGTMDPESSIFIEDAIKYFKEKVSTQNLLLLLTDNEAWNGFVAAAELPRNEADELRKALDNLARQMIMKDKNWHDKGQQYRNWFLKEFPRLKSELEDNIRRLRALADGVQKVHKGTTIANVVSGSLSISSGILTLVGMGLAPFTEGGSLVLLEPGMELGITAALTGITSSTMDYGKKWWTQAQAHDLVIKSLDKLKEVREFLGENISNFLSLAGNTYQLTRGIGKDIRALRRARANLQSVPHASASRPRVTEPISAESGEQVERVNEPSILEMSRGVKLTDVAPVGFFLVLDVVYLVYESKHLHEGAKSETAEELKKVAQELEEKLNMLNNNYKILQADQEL
Kind of experiment: Multi-Tox Assay (MultiTox-Fluor Multiplex Cytotoxicity Assay in tet-inducible APOL1 T-REx-HEK293 cells; Table 46 does not say which APOL1 variant G0/G1/G2). The class given is cell-based. As to conditions: APOL1 variant not given; for pIC50: IP50 = IC50 for cell proliferation.

The mark [1] stands for this setting: Trypanosome Assay, IP50 = IC50 for cell proliferation, read-out: Trypanosome Assay IP50.

As to `C[C@H]1C[C@@]2(C[C@@H](c3cnc(-c4cnn(C)c4)nc3)N1)OCCc1cc(Cl)sc12` (stereo in doubt) [Compound 61], the pIC50 at APOL1 G1 (setting [1]) and against APOL1 was > 7.30 in each case. Also, at APOL1 G1 (Trypanosome Assay), the Emax turned out to be 105%.
`C[C@H]1C[C@@]2(C[C@@H](c3ccc(O)nn3)N1)OCCc1cc(Cl)sc12` (stereo in doubt) [Compound 86]: the pIC50 at APOL1 G1 (setting [1]) and at APOL1 was > 7.30 throughout. Moreover, on APOL1 G1 (Trypanosome Assay), the Emax came to 112%.
With `CCc1cc([C@@H]2C[C@]3(C[C@H](C)N2)OCCc2cc(Cl)sc23)on1` (stereo in doubt) [Compound 91], the pIC50 on APOL1 G1 (setting [1]) and against APOL1 was > 7.30 each time. Besides, the Emax on APOL1 G1 (Trypanosome Assay) stood at 110%.
For the molecule `C[C@H]1C[C@@]2(C[C@@H](c3cnn(C4CCS(=O)(=O)C4)c3)N1)OCCc1cc(Cl)sc12` (stereo in doubt) [Compound 97], the pIC50 at APOL1 G1 (setting [1]) and against APOL1 was > 7.30 in each case. Further, the Emax at APOL1 G1 (Trypanosome Assay) stood at 104%.
As for `C[C@H]1C[C@@]2(C[C@@H](c3cc(C4CCOCC4)[nH]n3)N1)OCCc1cc(Cl)sc12` (stereo in doubt) [Compound 114], the results for the pIC50 at APOL1 G1 (setting [1]) and at APOL1 were 6.30 to 7.30 and > 7.30, respectively. Besides, the Emax at APOL1 G1 (Trypanosome Assay) came out at 95%. The “Multi-Tox Assay Max Activity (%)” value at APOL1 is 99.7%.
In the same order, the values of `C[C@H]1C[C@@]2(C[C@@H](c3cc(C(F)(F)F)[nH]n3)N1)OCCc1cc(Cl)sc12` (stereo in doubt) [Compound 119] are 6.30 to 7.30, > 7.30, 97.5% and 99.7%.
In the same order, the values of `C[C@H]1C[C@@]2(C[C@@H](c3cccn4ccnc34)N1)OCCc1cc(Cl)sc12` (stereo in doubt) [Compound 143] are 6.30 to 7.30, 6.30 to 7.30, 101% and 98.0%.
Consider `C[C@H]1CC2(CC(c3cn(C)cn3)N1)OCC(O)c1cc(Cl)sc12` (stereo in doubt) [Compound 178], for which the pIC50 on APOL1 G1 (setting [1]) and against APOL1 was > 7.30 throughout. For the same molecule, at APOL1 G1 (Trypanosome Assay), the Emax was 101%.
On to `C[C@H]1CC2(CC(c3cn(C)cn3)N1)OCC(O)c1cc(Cl)sc12` (stereo in doubt) [Compound 179], for which the “Trypanosome Assay Max Activity (%)” value on APOL1 G1 (Trypanosome Assay) was determined as 119.5%. Moreover, the pIC50 on APOL1 G1 (setting [1]) is > 7.30. In addition, at APOL1, the IC90 was < 50 nM, the “Multi-Tox Assay Max Activity (%)” value is 99.0% and the pIC50 is > 7.30.
In the case of `C[C@H]1C[C@@]2(C[C@@H](c3cn(C)nn3)N1)OCCc1cc(Cl)sc12` [Compound 1, (2′S,6′S,7S)-2-chloro-2′-methyl-6′-(1-methyltriazol-4-yl)spiro[4,5-dihydrothieno[2,3-c]pyran-7,4′-piperidine]], the pIC50 on APOL1 G1 (setting [1]) and at APOL1 was > 7.30 in each case. At APOL1 G1 (Trypanosome Assay), the Emax worked out at 124%.
On to `C[C@H]1C[C@@]2(C[C@@H](c3cn(C)nn3)N1)OCCc1cc(C(F)(F)F)sc12` [Compound 2, (2′S,6′S,7S)-2′-methyl-6′-(1-methyltriazol-4-yl)-2-(trifluoromethyl)spiro[4,5-dihydrothieno[2,3-c]pyran-7,4′-piperidine]], for which the pIC50 at APOL1 G1 (setting [1]) and against APOL1 was > 7.30 each time. Further, at APOL1 G1 (Trypanosome Assay), the Emax was 117%.
In the case of `C[C@H]1C[C@@]2(C[C@@H](c3cn(C)nn3)N1)OCCc1sc(C(F)(F)F)cc12` [Compound 8, (2′S,4S,6′S)-2′-methyl-6′-(1-methyltriazol-4-yl)-2-(trifluoromethyl)spiro[6,7-dihydrothieno[3,2-c]pyran-4,4′-piperidine]], the pIC50 at APOL1 G1 (setting [1]) was 6.30 to 7.30. Also, on APOL1 G1 (Trypanosome Assay), the Emax is 106%. Further, on APOL1, the “Multi-Tox Assay Max Activity (%)” value is listed as 100.0% and the pIC50 is > 7.30.
As for `CC1CC2(CC(c3cnn(CCS(C)(=O)=O)c3)N1)OCCc1sc(C(F)(F)F)cc12` (stereo not drawn) [Compound 9], the pIC50 is 6.30 to 7.30 on APOL1 G1 (setting [1]) and > 7.30 against APOL1. Moreover, at APOL1 G1 (Trypanosome Assay), the Emax came out at 108%. In addition, on APOL1, the “Multi-Tox Assay Max Activity (%)” value is on record as 100.0%.
As to `C[C@H]1C[C@@]2(C[C@@H](c3cn(C)nn3)N1)OCCc1c2sc(C(F)(F)F)c1CO` [Compound 17, [(2′S,6′S, 7S)-2′-methyl-6′-(1-methyltriazol-4-yl)-2-(trifluoromethyl)spiro[4,5-dihydrothieno[2,3-c]pyran-7,4′-piperidine]-3-yl]methanol], the pIC50 on APOL1 G1 (setting [1]) was 6.30 to 7.30; on APOL1, > 7.30. The Emax at APOL1 G1 (Trypanosome Assay) came to 102%.
`C[C@H]1C[C@@]2(C[C@@H](c3cnn(CC(=O)N(C)C)c3)N1)OCCc1cc(Cl)sc12` [Compound 18, 2-[4-[(2S,6S)-2-chloro-6′-methyl-spiro[4,5-dihydrothieno[2,3-c]pyran-7,4′-piperidine]-2′-yl]pyrazol-1-yl]-N,N-dimethyl-acetamide]: the results for the pIC50 at APOL1 G1 (setting [1]) and at APOL1 were 6.30 to 7.30 and > 7.30, respectively. For the same molecule, the Emax at APOL1 G1 (Trypanosome Assay) was 103%.
For `C[C@H]1C[C@@]2(C[C@@H](c3cnn(C)c3)N1)OCCc1cc(Cl)sc12` [Compound 19, (2S)-2-chloro-2′-methyl-6′-(1-methylpyrazol-4-yl)spiro[4,5-dihydrothieno[2,3-c]pyran-7,4′-piperidine]] the same measures were > 7.30, > 7.30 and 107%.
`CC1CC2(CC(c3ccc4c(c3)oc(=O)n4C)N1)OCCc1cc(Cl)sc12` (stereo not drawn) [Compound 23]: the pIC50 on APOL1 G1 (setting [1]) is > 7.30. Also, the Emax on APOL1 G1 (Trypanosome Assay) was determined as 116%. Also, on APOL1, the IC90 is < 50 nM, the “Multi-Tox Assay Max Activity (%)” value is reported as 99.7% and the pIC50 was > 7.30.
Regarding `CC1CC2(CC(c3cccc(C#N)c3)N1)OCCc1cc(Cl)sc12` (stereo not drawn) [Compound 24], at APOL1 G1 (setting [1]), the pIC50 was > 7.30. The Emax at APOL1 G1 (Trypanosome Assay) stood at 107%. On APOL1, the “Multi-Tox Assay Max Activity (%)” value stood at 100.0% and the pIC50 is > 7.30.
As for `CNC(=O)c1cccc(C2CC3(CC(C)N2)OCCc2cc(Cl)sc23)c1` (stereo not drawn) [Compound 27], the pIC50 on APOL1 G1 (setting [1]) and at APOL1 was > 7.30 in each case. In addition, the Emax on APOL1 G1 (Trypanosome Assay) worked out at 112%.
Regarding `CC1CC2(CC(c3ccncc3)N1)OCCc1cc(Cl)sc12` (stereo not drawn) [Compound 30], at APOL1 G1, the pIC50 was > 7.30 and the Emax stood at 124%. Moreover, on APOL1, the “Multi-Tox Assay Max Activity (%)” value came out at 99.0% and the pIC50 was > 7.30.
In the case of `CC1CC2(CC(c3cn[nH]c3)N1)OCCc1cc(Cl)sc12` (stereo not drawn) [Compound 31], the pIC50 at APOL1 G1 (setting [1]) was > 7.30. For the same molecule, the Emax at APOL1 G1 (Trypanosome Assay) was determined as 123%. Besides, on APOL1, the IC90 is < 50 nM, the “Multi-Tox Assay Max Activity (%)” value worked out at 100.0% and the pIC50 was > 7.30.
On to `CC1CC2(CC(c3cc(F)cc(C#N)c3)N1)OCCc1cc(Cl)sc12` (stereo not drawn) [Compound 33], for which the pIC50 on APOL1 G1 (setting [1]) and against APOL1 was > 7.30 throughout. The Emax on APOL1 G1 (Trypanosome Assay) came to 111%.
With `COc1ccc(C2CC3(CC(C)N2)OCCc2cc(Cl)sc23)nc1` (stereo not drawn) [Compound 34], the pIC50 on APOL1 G1 (setting [1]) is > 7.30. The Emax on APOL1 G1 (Trypanosome Assay) worked out at 115%. At APOL1, the “Multi-Tox Assay Max Activity (%)” value turned out to be 99.0% and the pIC50 is > 7.30.
Take `CC1CC2(CC(c3ccc4[nH]ncc4c3)N1)OCCc1cc(Cl)sc12` (stereo not drawn) [Compound 35]: the pIC50 on APOL1 G1 (setting [1]) and against APOL1 was > 7.30 each time. The Emax at APOL1 G1 (Trypanosome Assay) turned out to be 111%.
As to `CC(=O)Nc1ccc(C2CC3(CC(C)N2)OCCc2cc(Cl)sc23)cn1` (stereo not drawn) [Compound 37], the pIC50 at APOL1 G1 (setting [1]) and on APOL1 was > 7.30 throughout. Also, the Emax on APOL1 G1 (Trypanosome Assay) worked out at 114%.
For `CC1CC2(CC(c3cnn(C)n3)N1)OCCc1cc(Cl)sc12` (stereo not drawn) [Compound 38], the pIC50 on APOL1 G1 (setting [1]) and against APOL1 was > 7.30 each time. In addition, the Emax at APOL1 G1 (Trypanosome Assay) amounted to 112%.
Regarding `CC1CC2(CC(c3ccc4c(c3)OCC(=O)N4)N1)OCCc1cc(Cl)sc12` (stereo not drawn) [Compound 39], the pIC50 on APOL1 G1 (setting [1]) and at APOL1 was > 7.30 throughout. In addition, the Emax on APOL1 G1 (Trypanosome Assay) was determined as 116%.
For `CC1CC2(CC(c3cnn(-c4cccnc4)c3)N1)OCCc1cc(Cl)sc12` (stereo not drawn) [Compound 40], at APOL1 G1 (setting [1]), the pIC50 is > 7.30. At APOL1 G1 (Trypanosome Assay), the Emax worked out at 118%. Also, at APOL1, the “Multi-Tox Assay Max Activity (%)” value is on record as 100.0% and the pIC50 was > 7.30.
As to `CNC(=O)c1ccc(C2CC3(CC(C)N2)OCCc2cc(Cl)sc23)cc1` (stereo not drawn) [Compound 41], the pIC50 at APOL1 G1 (setting [1]) and on APOL1 was > 7.30 each time. The Emax at APOL1 G1 (Trypanosome Assay) was 112%.
Regarding `Cc1nn(C)c2ncc(C3CC4(CC(C)N3)OCCc3cc(Cl)sc34)cc12` (stereo not drawn) [Compound 42], the pIC50 on APOL1 G1 (setting [1]) and on APOL1 was > 7.30 each time. Besides, the Emax on APOL1 G1 (Trypanosome Assay) stood at 110%.
